Test results reported in US20060004191A1, “Modified sodium iodide symporter proteins and genes for imaging and cancer therapy” (priority 2002, published 2006).
Entries after “also recorded” stand apart in the source; their conditions may differ.

Experiments:
F98/hNIS gliomas [1] = assay: 99mTcO4 scintigraphy of intracerebral F98/hNIS gliomas; format: in vivo, rat; settings: about 20 min after tail vein injection
Protocol: (§1) Fischer rats weighing 175 to 200 grams (Harlan Sprague Dawley, Indianapolis, Ind.) were stereotactically implanted with tumor cells.^11,21 The tumor cells were either F98 cells or F98 cells which had been infected with and expressed a wild-type NIS protein (see Example 1). All experimental procedures received approval from Institutional Laboratory Animal Care and Use Committee of the Ohio State University. Briefly, rats were sedated by intraperitoneal (i.p.) administration of 120 mg of ketamine/20 mg of xylazine (Fort Dodge, Fort Dodge, IA) per kg of body weight, after which a plastic screw (Arrow Machine Manufacturing, Inc., Richmond, VA) was embedded into the cranium. F98 cells were injected within 10 to 15 seconds through a central hole in the plastic screw into the right hemisphere at a concentration of 10^3 (for therapeutic study) or 10^5 (for imaging study) cells in 10 μl of serum-free DMEM containing 1.4% agarose with a gelling temperature of <30° C. The screw hole was filled with bone wax immediately following withdrawal of the needle, and the operative field was flushed with betadine before the scalp incision was closed with a single sterilized clip.
(§2) Rats were anesthetized by i.p. injection of ketamine/xylazine, and then 2.0 mCi of ^99mTcO4 in 0.2 ml volume was administered via tail vein injection. […]

parental F98 tumors = assay: 99mTcO4 scintigraphy of intracerebral parental F98 tumors; format: in vivo, rat; settings: about 20 min after tail vein injection
Protocol: as §1, §2

F98/hNIS gliomas [2] = assay: serial 123I scintigraphy, radioiodide retention in tumor; format: in vivo, rat
Protocol: as §1
Serial ^123I images were obtained to determine the retention of radioiodide in the hNIS-transduced tumors (FIG. 7A). The average survival time for rats implanted with 10^5 F98/hNIS glioma cells was about 14-16 days. For studies of ^123I retention, images were acquired on days 13 to 15 following tumor implantation at which time ^123I (0.25 mCi) was administered via tail vein injection. Modified conjugate images were obtained sequentially with the rat first in dorsal-ventral and then ventral-dorsal positions on the top of the LEUHR collimator at 5 min, 20 min, 1 hr, 4 hr, 24 hr, and 37 hr following injection. […] Regions of interest (ROI) were drawn over the tumor, thyroid, and shoulder region (as a background) in two views (vertex and then ventral) of pinhole images for each different time point, and the geometric means of the count rates (counts/pixel) for each ROI in each view were calculated. […]

[3] = serial 123I scintigraphy, radioiodide retention in thyroid; format: in vivo, rat; settings: in the thyroid, from time activity curve, tail vein injection
Protocol: Serial ^123I images were obtained to determine the retention of radioiodide in the hNIS-transduced tumors (FIG. 7A). The average survival time for rats implanted with 10^5 F98/hNIS glioma cells was about 14-16 days. For studies of ^123I retention, images were acquired on days 13 to 15 following tumor implantation at which time ^123I (0.25 mCi) was administered via tail vein injection. Modified conjugate images were obtained sequentially with the rat first in dorsal-ventral and then ventral-dorsal positions on the top of the LEUHR collimator at 5 min, 20 min, 1 hr, 4 hr, 24 hr, and 37 hr following injection. The acquisition time at 5 min post-injection image was 5 min, and the acquisition times at subsequent time points were corrected for the physical decay of ^123I. Regions of interest (ROI) were drawn over the tumor, thyroid, and shoulder region (as a background) in two views (vertex and then ventral) of pinhole images for each different time point, and the geometric means of the count rates (counts/pixel) for each ROI in each view were calculated. Biological half-life of radioiodine was estimated based on the time activity curve generated by plotting the tumor ROI count rates versus time.

F98/hNIS tumors = assay: 131I therapy study, intracerebral hNIS-transduced tumors; format: in vivo, rat
Protocol: as §1
For ^131I therapy studies, rats were implanted stereotatically with 1×10^3 F98 cells on day 0, and the animals were divided into 3 groups: empty vector transduced tumors with ^131I treatment (F98/LXSN+^131I), hNIS transduced tumors without ^131I treatment (F98/hNIS—^131I), hNIS transduced tumors with ^131I treatment (F98/hNIS+^131I). Each group contained 12 rats. To minimize exposure of the thyroid gland to ^131I, rats were placed on 1 ppm thyroxine (T4)-supplemented diet (Harlan Teklad, Madison, Wis.) beginning one week prior to the first day of ^131I treatment. Animals received three i.p. injections, 4 mCi of ^131I per injection, on days 12, 14 and 16 post-implantation for a total of 12 mCi. The tumor size index on day 14 was assumed to be ˜2 mm^2 based on a previous study.^18 Animals were weighed three times per week. […] Therefore, animals displaying these signs were sacrificed, and survival times were determined from the day of tumor implantation to the day of sacrifice plus 1 day.^21,24 The observers were not blinded to sacrifice the rats. To confirm that all animals had progressively growing tumors at the time of death, the brains were removed, fixed in 10% neutral buffered formalin, and then 2-mm coronal sections were cut with a rat brain slicer (Zivic-Miller Laboratories, Inc., Allison Park, PA), and processed for routine histopathological examination. Tumor size was measured as (the longest length)×(the length perpendicular to the longest length) in tumor sections. Survival among different experimental groups was compared using unpaired t test as well as Log-rank test. Tumor sizes among different experimental groups were compared using unpaired t test. The P value of <0.05 were considered statistically significant.

F98/LXSN tumors = assay: 131I therapy study, intracerebral empty vector transduced tumors; format: in vivo, rat
Protocol: as §1
For ^131I therapy studies, rats were implanted stereotatically with 1×10^3 F98 cells on day 0, and the animals were divided into 3 groups: empty vector transduced tumors with ^131I treatment (F98/LXSN+^131I), hNIS transduced tumors without ^131I treatment (F98/hNIS—^131I), hNIS transduced tumors with ^131I treatment (F98/hNIS+^131I). Each group contained 12 rats. To minimize exposure of the thyroid gland to ^131I, rats were placed on 1 ppm thyroxine (T4)-supplemented diet (Harlan Teklad, Madison, Wis.) beginning one week prior to the first day of ^131I treatment. […] Therefore, animals displaying these signs were sacrificed, and survival times were determined from the day of tumor implantation to the day of sacrifice plus 1 day.^21,24 The observers were not blinded to sacrifice the rats. […] Tumor size was measured as (the longest length)×(the length perpendicular to the longest length) in tumor sections. […]

hNIS = target: T1, hNIS (Homo sapiens, UniProt Q92911); assay: inhibition of induced RAIU in hNIS-transduced F98 cells; format: cell-based
T1 construct: expressed in transfected cells; host or cells: F98 rat glioma cells infected with L-hNIS-SN recombinant retrovirus, G418-selected clone
T1 sequence (Q92911 1-643): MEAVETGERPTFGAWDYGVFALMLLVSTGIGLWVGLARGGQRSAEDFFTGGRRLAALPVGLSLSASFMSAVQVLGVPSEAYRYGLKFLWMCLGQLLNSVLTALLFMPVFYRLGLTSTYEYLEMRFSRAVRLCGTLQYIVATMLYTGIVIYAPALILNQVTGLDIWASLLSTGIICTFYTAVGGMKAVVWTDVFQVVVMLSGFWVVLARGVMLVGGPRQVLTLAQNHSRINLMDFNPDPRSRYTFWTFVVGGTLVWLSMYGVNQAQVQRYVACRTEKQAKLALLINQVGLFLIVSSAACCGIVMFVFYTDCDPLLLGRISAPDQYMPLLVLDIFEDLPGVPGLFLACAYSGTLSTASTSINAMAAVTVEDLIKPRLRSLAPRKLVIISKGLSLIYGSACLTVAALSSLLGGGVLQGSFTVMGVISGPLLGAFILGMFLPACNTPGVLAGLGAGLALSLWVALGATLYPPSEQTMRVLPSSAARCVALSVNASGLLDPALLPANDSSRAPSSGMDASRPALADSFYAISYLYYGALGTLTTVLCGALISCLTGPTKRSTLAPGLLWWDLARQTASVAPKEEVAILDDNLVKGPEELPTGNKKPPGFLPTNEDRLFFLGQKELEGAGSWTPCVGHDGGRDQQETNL
Protocol: NIS function in the hNIS-transduced F98 glioma cells was tested in vitro by radioiodide uptake assay^5 (RAIU). Cells (2×10^5 cells per well) were seeded in 24-well plates. At various times after seeding, the cells were incubated for 30 min at 37° C., 5.0% CO2 with growth media containing 2.0 μCi Na ^125I and 5-10 μM NaI carrier. The medium was aspirated and cells were quickly washed twice with ice-cold Hank's balanced salt solution (HBSS). Cells were then lysed by incubation with 95% ethanol. The radioactivity of the cell lysate was measured by a γ-counter (Packard Instruments, Downers Grove, Ill., USA). Experiments were performed in triplicate. The RAIU activity of the infected cells was expressed in terms of fold increase compared with that of mock-infected parental cells.

[4] = test system: endogenous rat NIS in thyroid; assay: thyroid 99mTcO4 scintigraphy and NIS Western blot in rats fed T4-supplemented diet; format: in vivo
Protocol: Western blot analysis was performed as previously described.^23 Briefly, the tumors were removed from the animals and homogenized in a homogenizing buffer (10 mM Tris-HCl (pH 7.5), 5 mM NaCl, 1 mM EDTA, 0.1 mM PMSF, 50 μg/ml leupeptin) containing 0.25 M sucrose. The lysates were centrifuged at 700 g for 10 min at 4° C. The supernatants were further centrifuged at 200,000 g for 60-90 min at 4° C. to obtain membrane fractions, which were resuspended in homogenizing buffer without sucrose and kept at −80° C. until use. The membrane fractions ([…] per lane) were solubilized for 30 min at 37° C. in the same volume of reducing sample buffer (0.125 M Tris-HCl (pH 6.8), 4% SDS, 10% β-mercaptoethanol, 20% glycerol) and subjected to 4-20% gradient or 7.5% SDS-PAGE. The proteins were transferred on to a nitrocellulose filter which was then blocked with 5% nonfat dry mild in TBST buffer (10 mM Tris-HCl (pH 8.0), 150 mM NaCl, 0.1% Tween 20) at 4° C. overnight. […]
Rats fed a T4-supplemented diet were expected to have reduced RAIU in thyroid, as the endogenous NIS expression and activity in thyroid tissues is TSH-dependent. […] In comparison, thyroid was readily detectable by ^99mTcO4 scintigraphy in rats fed a normal diet. […]

[5] = F98/hNIS with 131I treatment group
[6] = F98/LXSN with 131I treatment group

Compound: [O]=[99Tc](=[O])(=[O])[O-] [99mTcO4]
- 99mTcO4 uptake in tumor (F98/hNIS gliomas [1]): intense
- 99mTcO4 uptake in tumor (parental F98 tumors): no ^99mTcO4 uptake was found

Compound: [123IH] [123I]
- 123I uptake in tumor (F98/hNIS gliomas [2]; F98/hNIS gliomas, by 37 hours post-injection): barely detectable
- radioiodide uptake in tumor (F98/hNIS gliomas [2]; F98/hNIS gliomas, through 24 hrs post-injection): evident
- biological half-life of 123I (F98/hNIS gliomas [2]; in F98/hNIS gliomas, from time activity curve, tail vein injection): 10 hours
- biological half-life of 123I [3]: greater than 20 hours

Compound: [131IH] [131I]
- average survival time (F98/hNIS tumors; F98/hNIS tumors with 131I treatment, 3 i.p. injections, total 12 mCi): 45 ± 8.6 days
- prolongation of average survival time (F98/hNIS tumors; F98/hNIS with 131I compared to F98/LXSN with 131I, P<0.01): ~2 weeks
- prolongation of average survival time (F98/hNIS tumors; F98/hNIS with 131I compared to F98/hNIS without 131I, P<0.05): 6 days
- tumor size at sacrifice, length perpendicular to the longest length (F98/hNIS tumors; [5]): 6.1±1.5 mm
- tumor size at sacrifice, longest length (F98/hNIS tumors; [5]): 8.5±1.9 mm
- average survival time (F98/LXSN tumors; F98/LXSN tumors with 131I treatment, 3 i.p. injections, total 12 mCi): 30.4 ± 3.2 days
- tumor size at sacrifice, length perpendicular to the longest length (F98/LXSN tumors; [6]): 6.4±1.6 mm
- tumor size at sacrifice, longest length (F98/LXSN tumors; [6]): 8.7±1.6 mm

Compound: [O-][Cl+3]([O-])([O-])O [NaClO4, sodium perchlorate]
- effect on induced RAIU (hNIS): suppressed; also recorded: inhibited

Compound: N[C@@H](Cc1cc(I)c(Oc2cc(I)c(O)c(I)c2)c(I)c1)C(=O)O [T4, thyroxine]
- NIS glycoprotein in thyroid by Western blot ([4]; rats fed T4-supplemented diet): barely detected
- thyroid detectability by 99mTcO4 scintigraphy ([4]; rats fed T4-supplemented diet for 11 days): not detectable
